Test results: publication PMC7481290, “Halogenation as a tool to tune antimicrobial activity of peptoids” (Scientific Reports, 2020)
Values after ≈ are worked out from the molar mass of the structure shown. Non-standard residues stand in square brackets, D forms with d. Residues, ends and D or L forms follow the SMILES beside them. Gly(Nα-4-Cl-benzyl) = O=C(O)CNCc1ccc(Cl)cc1; N(4-Br-benzyl)Gly = O=C(O)CNCc1ccc(Br)cc1; N(4-F-Bzl)Gly = O=C(O)CNCc1ccc(F)cc1; NBzl(4-I)Gly = O=C(O)CNCc1ccc(I)cc1; Nphe = O=C(O)CNCc1ccccc1; Nlys = NCCCCNCC(=O)O

Columns and labels:
E. coli ATCC 25922 = assay type: cell-based, Escherichia coli; details: ATCC 25922, 18 h
Outline: (§1)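 Broth microdilution per CLSI in MHB II, final inoculum 5 × 10^5 CFU/mL, with twofold peptoid dilutions. Incubation was 18 h at 37 °C in ambient air. MIC was taken as the lowest concentration without visible growth, from two experiments on different days in technical triplicate.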

[1] = system: P. aeruginosa PA01 (H103); assay type: cell-based, Pseudomonas aeruginosa; details: H103, 18 h
Outline: as §1

[2] = system: Methicillin-resistant S. epidermidis ATCC 51625; assay type: cell-based, Staphylococcus epidermidis; details: for Minimal inhibitory concentration MRSE^e: ATCC 51625, 18 h
Outline: as §1

[3] = system: Methicillin-resistant S. epidermidis ET-024; assay type: cell-based, Staphylococcus epidermidis; details: for Minimal inhibitory concentration MRSE^d: Methicillin-resistant ET-024, 18 h
Outline: as §1

S. aureus ATCC 25923 = assay type: cell-based, Staphylococcus aureus; details: for Minimal inhibitory concentration SA^a: ATCC 25923, 18 h
Outline: as §1

[4] = system: Methicillin-resistant S. aureus USA 300; assay type: cell-based, Staphylococcus aureus; details: USA 300, 18 h
Outline: as §1

S. aureus ATCC 29213 = assay type: cell-based, Staphylococcus aureus; details: ATCC 29213, 18 h
Outline: as §1

[5] = Critical aggregation concentration from SAXS fit analysis; assay type: physicochemical
Procedure: SAXS experiments of the 10-mer peptoids were performed at the automated BM29 bioSAXS beamline at the European Synchrotron Radiation Facility (ESRF) in Grenoble, France[45]. The data was obtained using an energy of 12.5 keV and a detector distance of 2.87 m, covering a q range ( q=4πsin(θ/2)/λ ), where θ is the scattering angle and λ is the X-ray wavelength) of about 0.0047 to 0.5 Å^−1. The data set was calibrated to an absolute intensity scale using water as a primary standard. 40 µL samples were run through a capillary using the flow mode of the automated sample changer. SAXS data was collected in ten successive frames of 0.5 s each to monitor radiation damage and the data reduction was done using the standard tool at BM29[47].
The SAXS experiments on the fully iodinated 6-, 8-, and 12-mers to determine the CAC of the compounds were performed using a Bruker NANOSTAR equipped with a microfocus X-ray source (IμS Cu, Incoatec, Germany) and a VÅNTEC-2000 detector. Raw scattering data was calibrated to absolute intensity scale using water as a primary standard and radially averaged in order to obtain the 1D scattered intensity profile as a function of the scattering vector, with a wavelength of 1.54 Å.
The modelling fit analysis of the scattering data is explained in detail in the supplementary information.

SMILES | Minimal inhibitory concentration EC^f (E. coli ATCC 25922) [µg/mL] | Minimal inhibitory concentration PA^g [1] [µg/mL] | MIC against MRSE ([2]; text b15, strain not named, values match ATCC 51625) [µg/mL] | fold increase of activity against MRSE ([2]; versus non-halogenated control 1, values match ATCC 51625) [fold] | Minimal inhibitory concentration MRSE^d [3] [µg/mL] | Minimal inhibitory concentration SA^a (S. aureus ATCC 25923) [µg/mL] | fold increase of activity against S. aureus (S. aureus ATCC 25923; versus non-halogenated control of same length) [fold] | Minimal inhibitory concentration MRSA^c [4] [µg/mL] | Minimal inhibitory concentration SA^b (S. aureus ATCC 29213) [µg/mL] | critical aggregation concentration (CAC) [5] [mg/mL] | Minimal inhibitory concentration MRSE^e [2] [µg/mL] | fold increase of activity against MRSE ([3]; versus non-halogenated control of same length, values match ET-024) [fold]
NCCCCNCC(=O)N(CC(=O)N(CCCCN)CC(=O)N(CC(=O)N(CCCCN)CC(=O)N(CC(N)=O)Cc1ccc(I)cc1)Cc1ccc(I)cc1)Cc1ccc(I)cc1 [Compound 5] (H-[Nlys][NBzl(4-I)Gly][Nlys][NBzl(4-I)Gly][Nlys][NBzl(4-I)Gly]-NH2) | 64 (≈ 52.4 µM) | > 512 | 2 (≈ 1.64 µM) | 256 | 4 (≈ 3.28 µM) | 8 (≈ 6.55 µM) | > 64 | 4 (≈ 3.28 µM) | 4 (≈ 3.28 µM) | 2.8 | – | –
NCCCCNCC(=O)N(CC(=O)N(CCCCN)CC(=O)N(CC(=O)N(CCCCN)CC(=O)N(CC(=O)N(CCCCN)CC(=O)N(CC(N)=O)Cc1ccc(I)cc1)Cc1ccc(I)cc1)Cc1ccc(I)cc1)Cc1ccc(I)cc1 [Compound 14] (H-[Nlys][NBzl(4-I)Gly][Nlys][NBzl(4-I)Gly][Nlys][NBzl(4-I)Gly][Nlys][NBzl(4-I)Gly]-NH2) | 64 (≈ 39.5 µM) | > 512 | – | – | 2 (≈ 1.23 µM) | 8 (≈ 4.93 µM) | – | 4 (≈ 2.47 µM) | 16 (≈ 9.86 µM) | 1.4 | 4 (≈ 2.47 µM) | 128
NCCCCNCC(=O)N(CC(=O)N(CCCCN)CC(=O)N(CC(=O)N(CCCCN)CC(=O)N(CC(=O)N(CCCCN)CC(=O)N(CC(=O)N(CCCCN)CC(=O)N(CC(N)=O)Cc1ccc(F)cc1)Cc1ccc(F)cc1)Cc1ccc(F)cc1)Cc1ccc(F)cc1)Cc1ccc(F)cc1 [Compound 20] (H-[Nlys][N(4-F-Bzl)Gly][Nlys][N(4-F-Bzl)Gly][Nlys][N(4-F-Bzl)Gly][Nlys][N(4-F-Bzl)Gly][Nlys][N(4-F-Bzl)Gly]-NH2) | 128 (≈ 86.3 µM) | 256 (≈ 173 µM) | – | – | 4 (≈ 2.7 µM) | 64 (≈ 43.1 µM) | – | 32 (≈ 21.6 µM) | 64 (≈ 43.1 µM) | > 5 | 8 (≈ 5.39 µM) | –
NCCCCNCC(=O)N(CC(=O)N(CCCCN)CC(=O)N(CC(=O)N(CCCCN)CC(=O)N(CC(=O)N(CCCCN)CC(=O)N(CC(=O)N(CCCCN)CC(=O)N(CC(N)=O)Cc1ccc(Cl)cc1)Cc1ccc(Cl)cc1)Cc1ccc(Cl)cc1)Cc1ccc(Cl)cc1)Cc1ccc(Cl)cc1 [Compound 21] (H-[Nlys][Gly(Nα-4-Cl-benzyl)][Nlys][Gly(Nα-4-Cl-benzyl)][Nlys][Gly(Nα-4-Cl-benzyl)][Nlys][Gly(Nα-4-Cl-benzyl)][Nlys][Gly(Nα-4-Cl-benzyl)]-NH2) | 64 (≈ 40.9 µM) | > 512 | – | – | 1 (≈ 0.639 µM) | 2 (≈ 1.28 µM) | – | 2 (≈ 1.28 µM) | 2 (≈ 1.28 µM) | > 5 | 2 (≈ 1.28 µM) | –
NCCCCNCC(=O)N(CC(=O)N(CCCCN)CC(=O)N(CC(=O)N(CCCCN)CC(=O)N(CC(=O)N(CCCCN)CC(=O)N(CC(=O)N(CCCCN)CC(=O)N(CC(N)=O)Cc1ccc(F)cc1)Cc1ccccc1)Cc1ccc(F)cc1)Cc1ccccc1)Cc1ccc(F)cc1 [Compound 24] (H-[Nlys][N(4-F-Bzl)Gly][Nlys][Nphe][Nlys][N(4-F-Bzl)Gly][Nlys][Nphe][Nlys][N(4-F-Bzl)Gly]-NH2) | 256 (≈ 177 µM) | 512 (≈ 354 µM) | – | – | 4 (≈ 2.76 µM) | 512 (≈ 354 µM) | – | 256 (≈ 177 µM) | 512 (≈ 354 µM) | > 5 | 8 (≈ 5.53 µM) | –
NCCCCNCC(=O)N(CC(=O)N(CCCCN)CC(=O)N(CC(=O)N(CCCCN)CC(=O)N(CC(=O)N(CCCCN)CC(=O)N(CC(=O)N(CCCCN)CC(=O)N(CC(N)=O)Cc1ccc(Cl)cc1)Cc1ccccc1)Cc1ccc(Cl)cc1)Cc1ccccc1)Cc1ccc(Cl)cc1 [Compound 25] (H-[Nlys][Gly(Nα-4-Cl-benzyl)][Nlys][Nphe][Nlys][Gly(Nα-4-Cl-benzyl)][Nlys][Nphe][Nlys][Gly(Nα-4-Cl-benzyl)]-NH2) | 256 (≈ 171 µM) | 512 (≈ 342 µM) | – | – | 2 (≈ 1.34 µM) | 8 (≈ 5.34 µM) | – | 16 (≈ 10.7 µM) | 8 (≈ 5.34 µM) | > 5 | 1 (≈ 0.668 µM) | –
NCCCCNCC(=O)N(CC(=O)N(CCCCN)CC(=O)N(CC(=O)N(CCCCN)CC(=O)N(CC(=O)N(CCCCN)CC(=O)N(CC(=O)N(CCCCN)CC(=O)N(CC(=O)N(CCCCN)CC(=O)N(CC(N)=O)Cc1ccc(Br)cc1)Cc1ccccc1)Cc1ccc(Br)cc1)Cc1ccccc1)Cc1ccc(Br)cc1)Cc1ccccc1 [Compound 35] (H-[Nlys][Nphe][Nlys][N(4-Br-benzyl)Gly][Nlys][Nphe][Nlys][N(4-Br-benzyl)Gly][Nlys][Nphe][Nlys][N(4-Br-benzyl)Gly]-NH2) | 256 (≈ 134 µM) | > 512 | – | – | 8 (≈ 4.2 µM) | 8 (≈ 4.2 µM) | – | 8 (≈ 4.2 µM) | 8 (≈ 4.2 µM) | – | 1 (≈ 0.525 µM) | –
NCCCCNCC(=O)N(CC(=O)N(CCCCN)CC(=O)N(CC(=O)N(CCCCN)CC(=O)N(CC(=O)N(CCCCN)CC(=O)N(CC(=O)N(CCCCN)CC(=O)N(CC(=O)N(CCCCN)CC(=O)N(CC(N)=O)Cc1ccc(I)cc1)Cc1ccccc1)Cc1ccc(I)cc1)Cc1ccccc1)Cc1ccc(I)cc1)Cc1ccccc1 [Compound 36] (H-[Nlys][Nphe][Nlys][NBzl(4-I)Gly][Nlys][Nphe][Nlys][NBzl(4-I)Gly][Nlys][Nphe][Nlys][NBzl(4-I)Gly]-NH2) | 256 (≈ 125 µM) | > 512 | – | – | 4 (≈ 1.95 µM) | 8 (≈ 3.91 µM) | – | 4 (≈ 1.95 µM) | 16 (≈ 7.82 µM) | – | 1 (≈ 0.489 µM) | –
